Where two headings read alike, the source gives them in different places. Values belong to the compound of their own block, whether it stands above or below them.
Assays:
Test in all cases: biochemical
Design in all cases: Thermal shift (DSF, SYPRO Orange) Tm shift of recombinant kinase domains at 10 uM compound
CAMK2B = CAMK2B (Homo sapiens, UniProt Q13554)
DAPK3 = DAPK3 (Homo sapiens, UniProt O43293)
DYRK2 = molecular target: T1, DYRK2 (Homo sapiens, UniProt Q92630)
T1 sequence (Q92630 1-601): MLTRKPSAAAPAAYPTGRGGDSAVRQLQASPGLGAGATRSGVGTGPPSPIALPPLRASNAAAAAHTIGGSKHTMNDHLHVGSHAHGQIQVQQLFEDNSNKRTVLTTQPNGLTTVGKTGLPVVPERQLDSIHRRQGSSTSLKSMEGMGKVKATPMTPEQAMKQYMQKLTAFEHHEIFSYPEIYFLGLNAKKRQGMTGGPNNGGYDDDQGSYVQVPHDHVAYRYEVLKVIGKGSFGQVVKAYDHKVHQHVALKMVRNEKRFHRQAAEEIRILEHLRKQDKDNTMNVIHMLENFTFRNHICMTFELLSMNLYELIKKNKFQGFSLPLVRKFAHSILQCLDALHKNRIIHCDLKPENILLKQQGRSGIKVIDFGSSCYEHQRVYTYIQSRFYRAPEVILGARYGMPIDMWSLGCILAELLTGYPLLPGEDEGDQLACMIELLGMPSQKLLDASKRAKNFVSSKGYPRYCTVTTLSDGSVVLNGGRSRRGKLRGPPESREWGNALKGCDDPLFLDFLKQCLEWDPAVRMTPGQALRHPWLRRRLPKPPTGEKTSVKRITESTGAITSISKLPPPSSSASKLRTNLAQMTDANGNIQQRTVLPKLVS

EphA2 = EphA2 (Homo sapiens, UniProt P29317)
MER = molecular target: T2, MER (Homo sapiens, UniProt Q12866)
T2 construct: gene MERTK
T2 sequence (Q12866 1-999): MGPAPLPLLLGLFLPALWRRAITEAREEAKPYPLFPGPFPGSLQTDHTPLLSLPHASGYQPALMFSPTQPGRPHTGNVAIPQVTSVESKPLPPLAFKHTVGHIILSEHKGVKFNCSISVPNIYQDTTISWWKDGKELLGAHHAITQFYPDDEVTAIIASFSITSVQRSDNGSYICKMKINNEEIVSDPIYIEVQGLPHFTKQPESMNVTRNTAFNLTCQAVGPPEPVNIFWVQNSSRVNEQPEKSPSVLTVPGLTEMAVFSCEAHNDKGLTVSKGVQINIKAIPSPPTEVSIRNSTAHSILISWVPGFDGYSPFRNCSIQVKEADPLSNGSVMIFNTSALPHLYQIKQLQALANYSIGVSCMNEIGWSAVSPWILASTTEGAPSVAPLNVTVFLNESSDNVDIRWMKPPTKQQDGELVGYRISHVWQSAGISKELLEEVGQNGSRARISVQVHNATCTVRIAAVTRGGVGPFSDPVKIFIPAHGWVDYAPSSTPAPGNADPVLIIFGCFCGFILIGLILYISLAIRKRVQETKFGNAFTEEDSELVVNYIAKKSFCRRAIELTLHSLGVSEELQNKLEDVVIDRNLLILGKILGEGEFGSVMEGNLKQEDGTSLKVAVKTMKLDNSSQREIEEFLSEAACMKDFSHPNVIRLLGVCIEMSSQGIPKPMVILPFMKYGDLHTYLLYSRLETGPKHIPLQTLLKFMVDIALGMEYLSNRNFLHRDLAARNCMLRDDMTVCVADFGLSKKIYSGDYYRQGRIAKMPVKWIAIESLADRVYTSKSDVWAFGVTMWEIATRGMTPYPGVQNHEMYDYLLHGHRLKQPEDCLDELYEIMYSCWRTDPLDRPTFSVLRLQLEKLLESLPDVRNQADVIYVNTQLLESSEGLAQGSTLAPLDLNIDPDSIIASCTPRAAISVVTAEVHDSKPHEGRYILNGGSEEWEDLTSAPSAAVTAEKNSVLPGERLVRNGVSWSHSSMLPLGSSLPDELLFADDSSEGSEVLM

NEK7 = NEK7 (Homo sapiens, UniProt Q8TDX7)
NQO2 = molecular target: T3, NQO2 (Homo sapiens, UniProt P16083)
T3 sequence (P16083 1-231): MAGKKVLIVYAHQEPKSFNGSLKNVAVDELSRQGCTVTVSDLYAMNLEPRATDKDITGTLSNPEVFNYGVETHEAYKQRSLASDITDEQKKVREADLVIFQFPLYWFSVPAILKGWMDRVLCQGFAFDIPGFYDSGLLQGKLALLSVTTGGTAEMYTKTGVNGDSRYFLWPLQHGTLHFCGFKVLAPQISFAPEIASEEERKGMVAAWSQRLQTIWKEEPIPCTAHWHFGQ

STLK3 = molecular target: T4, STLK3 (Homo sapiens, UniProt Q9UEW8)
T4 construct: gene STK39

Sequence of DAPK3 (O43293 whole entry): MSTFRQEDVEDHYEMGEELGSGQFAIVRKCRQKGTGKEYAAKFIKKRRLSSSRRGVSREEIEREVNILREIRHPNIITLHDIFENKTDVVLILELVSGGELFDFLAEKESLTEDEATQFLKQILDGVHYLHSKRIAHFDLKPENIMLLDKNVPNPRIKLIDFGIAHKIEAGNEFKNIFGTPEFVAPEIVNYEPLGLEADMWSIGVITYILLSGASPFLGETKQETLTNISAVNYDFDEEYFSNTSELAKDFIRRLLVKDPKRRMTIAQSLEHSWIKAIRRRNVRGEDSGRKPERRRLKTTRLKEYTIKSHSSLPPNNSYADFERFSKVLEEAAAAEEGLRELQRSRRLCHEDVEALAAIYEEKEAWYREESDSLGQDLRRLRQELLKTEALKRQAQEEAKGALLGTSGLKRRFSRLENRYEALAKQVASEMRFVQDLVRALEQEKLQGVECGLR
Sequence of EphA2 (P29317 whole entry): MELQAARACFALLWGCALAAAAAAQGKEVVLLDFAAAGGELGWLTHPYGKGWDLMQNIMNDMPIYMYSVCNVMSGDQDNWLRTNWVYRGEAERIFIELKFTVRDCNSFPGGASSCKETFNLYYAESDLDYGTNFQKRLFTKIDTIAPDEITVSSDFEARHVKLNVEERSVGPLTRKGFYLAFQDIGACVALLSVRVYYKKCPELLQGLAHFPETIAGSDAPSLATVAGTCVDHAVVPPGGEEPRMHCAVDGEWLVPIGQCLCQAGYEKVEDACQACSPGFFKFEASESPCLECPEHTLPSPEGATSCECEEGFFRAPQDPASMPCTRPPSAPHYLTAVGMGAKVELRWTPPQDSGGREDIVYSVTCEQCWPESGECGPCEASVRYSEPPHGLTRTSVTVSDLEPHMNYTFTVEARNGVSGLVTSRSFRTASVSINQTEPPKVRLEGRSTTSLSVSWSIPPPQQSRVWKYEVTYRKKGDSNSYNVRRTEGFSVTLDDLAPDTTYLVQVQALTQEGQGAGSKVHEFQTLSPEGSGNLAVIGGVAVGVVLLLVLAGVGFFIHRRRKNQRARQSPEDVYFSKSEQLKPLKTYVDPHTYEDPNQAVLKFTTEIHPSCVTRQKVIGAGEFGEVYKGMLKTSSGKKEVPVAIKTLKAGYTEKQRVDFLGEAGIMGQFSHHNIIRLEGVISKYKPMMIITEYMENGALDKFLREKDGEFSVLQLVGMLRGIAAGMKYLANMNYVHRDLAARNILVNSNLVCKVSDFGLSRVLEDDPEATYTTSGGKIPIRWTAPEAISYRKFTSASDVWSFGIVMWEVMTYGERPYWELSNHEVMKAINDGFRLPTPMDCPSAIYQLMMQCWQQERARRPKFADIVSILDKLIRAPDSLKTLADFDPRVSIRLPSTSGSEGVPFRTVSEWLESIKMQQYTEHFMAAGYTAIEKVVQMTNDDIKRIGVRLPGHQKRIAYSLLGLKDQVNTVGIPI
Sequence of NEK7 (Q8TDX7 whole entry): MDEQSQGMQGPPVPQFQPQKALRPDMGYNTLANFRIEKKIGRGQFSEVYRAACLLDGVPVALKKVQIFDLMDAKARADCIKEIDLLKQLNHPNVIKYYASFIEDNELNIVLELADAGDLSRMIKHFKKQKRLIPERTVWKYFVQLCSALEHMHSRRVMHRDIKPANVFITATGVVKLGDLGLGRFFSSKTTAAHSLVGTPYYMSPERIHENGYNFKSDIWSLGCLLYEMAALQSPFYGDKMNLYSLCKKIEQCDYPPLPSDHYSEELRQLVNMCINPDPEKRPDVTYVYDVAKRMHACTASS
Sequence of CAMK2B (Q13554 whole entry): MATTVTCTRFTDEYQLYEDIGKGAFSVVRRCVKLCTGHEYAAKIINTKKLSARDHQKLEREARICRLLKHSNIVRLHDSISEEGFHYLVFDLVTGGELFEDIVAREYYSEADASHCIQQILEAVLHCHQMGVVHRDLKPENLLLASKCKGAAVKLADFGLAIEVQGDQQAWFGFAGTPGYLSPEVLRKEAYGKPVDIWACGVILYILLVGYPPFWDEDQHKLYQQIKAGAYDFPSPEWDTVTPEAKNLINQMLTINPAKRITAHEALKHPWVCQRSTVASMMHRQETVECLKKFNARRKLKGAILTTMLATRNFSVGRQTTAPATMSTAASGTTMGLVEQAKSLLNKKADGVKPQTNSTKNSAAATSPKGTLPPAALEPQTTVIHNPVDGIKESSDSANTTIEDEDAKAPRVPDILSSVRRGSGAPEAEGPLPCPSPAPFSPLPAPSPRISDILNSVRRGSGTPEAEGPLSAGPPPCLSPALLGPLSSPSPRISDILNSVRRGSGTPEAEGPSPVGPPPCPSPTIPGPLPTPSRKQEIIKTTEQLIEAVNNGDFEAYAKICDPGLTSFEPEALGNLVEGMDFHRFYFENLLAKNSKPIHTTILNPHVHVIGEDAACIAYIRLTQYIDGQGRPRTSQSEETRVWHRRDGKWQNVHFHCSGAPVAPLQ

ΔTm at 10 µM (CAMK2B; read-out: 7c): 1 °C
ΔTm at 10 µM (DAPK3; read-out: 7c): 14 °C
ΔTm at 10 µM (DYRK2; read-out: 7c): 9 °C
ΔTm at 10 µM (EphA2; read-out: 7c): 1 °C
ΔTm at 10 µM (MER; read-out: 7c): 3 °C
ΔTm at 10 µM (NEK7; read-out: 7c): -1 °C
ΔTm at 10 µM (NQO2; read-out: 7c): -1 °C
ΔTm at 10 µM (STLK3; read-out: 7c): 0 °C
Structure (SMILES): COc1ccc(OC(C)C)cc1Nc1cncc(-c2ccc(C(=O)O)cc2)n1 [7c]

ΔTm at 10 µM (CAMK2B; read-out: 6c): 2 °C
ΔTm at 10 µM (DAPK3; read-out: 6c): 11 °C
ΔTm at 10 µM (DYRK2; read-out: 6c): 11 °C
ΔTm at 10 µM (EphA2; read-out: 6c): 3 °C
ΔTm at 10 µM (MER; read-out: 6c): 3 °C
ΔTm at 10 µM (NEK7; read-out: 6c): -1 °C
ΔTm at 10 µM (NQO2; read-out: 6c): -1 °C
ΔTm at 10 µM (STLK3; read-out: 6c): 0 °C
Structure (SMILES): CC(C)Oc1ccc2ccn(-c3cncc(-c4ccc(C(=O)O)cc4)n3)c2c1 [6c]

ΔTm at 10 µM (CAMK2B; read-out: 2): 2 °C
ΔTm at 10 µM (DAPK3; read-out: 2): 16 °C
ΔTm at 10 µM (DYRK2; read-out: 2): 12 °C
ΔTm at 10 µM (EphA2; read-out: 2): 1 °C
ΔTm at 10 µM (MER; read-out: 2): 3 °C
ΔTm at 10 µM (NEK7; read-out: 2): 0 °C
ΔTm at 10 µM (NQO2; read-out: 2): -1 °C
ΔTm at 10 µM (STLK3; read-out: 2): 1 °C
Structure (SMILES): CC(C)Nc1ccc2cnn(-c3cncc(-c4ccc(C(=O)O)cc4)n3)c2c1 [compound 2, 2]

— article doi:10.1101/2023.12.04.569845, “Identification of 4-(6-((2-methoxyphenyl)amino)pyrazin-2-yl)benzoic acids as CSNK2A inhibitors with antiviral activity and improved selectivity over PIM3” (bioRxiv, 2023)
